# Source: US20230330118A1, “2-DEOXY-D-GLUCOSE FOR PREVENTION AND TREATMENT OF A VIRAL DISEASE, IN PARTICULAR OF COVID-19” (priority 2020, published 2023)
# Like-named read-outs stand apart in the source and are kept apart here.
# What was measured:
# [1] = test system: SARS-CoV-2; conditions: Bojkova et al. 2020; cited from earlier work
# [2] = test system: Human Bronchial Epithelial Cells (HBEpiC); assay: Cell viability (CellTiter 96 AQueous), short exposure; format: cell-based; conditions: 15 minutes to 6 hours exposure
# Procedure: (§1) Human Bronchial Epithelial Cells (HBEpiC) were obtained from Innoprot (Cat no. P10557, batch no. 7475) and cultured in Bronchial Epithelial Cell Medium (Innoprot, Cat no. P60151) supplemented with 0.2% gentamicin (Gibco, Life Technologies, USA, Cat. no. 15710-049) under standard cell culture conditions (5% CO2, 16% O2, 37° C.). HBEpiC at passage 2, were plated in Bronchial Epithelial Cell Medium at 10.0 thousand cells per well of a 96-well plate and left for 48 hours in an incubator. The plates were coated with collagen (Collagen I-cell surface coating kit, Innoprot, Cat no. P8188) prior to cell seeding. 2-deoxy-D-glucose (Sigma-Aldrich; Cat no. D8375) was added to the cells for 15 min, 30 min, 1 h, 2 h and 6 h.
# Cells were exposed to the compound at the following concentrations of 2-deoxy-D-glucose in medium as a solvent: 200 mM; 100 mM; 50 mM; 25 mM; 12.5 mM; 6.25 mM.
# In order to assess cell viability, medium containing 2-deoxy-D-glucose was removed, the fresh medium was added to the cells and CellTiter 96® AQueous Solution Assay (Promega) was used in accordance with the manufacturer's instructions, 20 μl of reagent was added per 100 μl of cell culture medium and cells were incubated at 5% CO2, 16% O2, 37° C. Absorbance was measured at 490 nm. The results obtained 1 hour after addition of the CellTiter reagent were analyzed in GraphPadPrism 5.01. […]
# [3] = test system: SARS-CoV-2; format: cell-based; conditions: Vero E6
# [4] = test system: SARS-CoV-2; format: cell-based; conditions: for TCID50/ml: Vero-E6, M.O.I 0.001
# [5] = test system: rhinovirus; conditions: Gualdoni et al. 2018; cited from earlier work
# [6] = test system: SARS-CoV-2; format: cell-based
# [7] = very high tolerance; cited from earlier work
# [8] = test system: rhinovirus; conditions: Gualdoni et al. 2018; cited from earlier work; remark: listed apart in the source
# [9] = test system: SARS-CoV-2 Spike Protein; assay: Western blot analysis of Spike protein glycosylation in human bronchial epithelial cells (HBEpiC) transduced with Spike lentiviral vectors; format: cell-based
# [10] = test system: primary human bronchial epithelial cells; assay: Toxicity observed in PBEC during the 48 h antiviral incubation; format: cell-based; conditions: 48 h incubation
# Procedure: Day 2. Pre-treatment of PBEC cells in 48 wells plate with 2-DG prior to SARS-CoV-2 infection (2 h), and treatment with 2-DG for 48 h. SARS-CoV-2 was added at MOI 10-1 (MOI 0.1) and removed after 2 hours. Then, the cell culture was washed with PBS (3×0.5 mL) and 300 μL of medium with 2-DG from 50 mM to 0.39 mM, or medium with or without remdesivir for control, were added.
# [11] = 2-DG uptake measurement in lung tissue lysates of mice treated by inhalation; format: in vivo; conditions: 7 days, 14 days
# Procedure: The analysis involved six lung tissue sections of mice (both male and female) treated by inhalation with 2-DG at a concentration of 30 mM thrice a day for 24 hours, 7 days and two weeks. The tissues were weighed, suspended in 10 mM Tris-HCl lysis buffer (pH 8.0) and then subjected to homogenization with the use of homogenizer (MPW-302, Precision Mechanics). Each analyzed sample is described in table below:
# The 2DG6P accumulation in cells was determined with the use of 2-Deoxyglucose (2-DG) Uptake Measurement Kit (Cat. No. CSR-OKP-PMG-K01TE; Cosmo Bio Co., LTD., Tokyo, Japan) according to the manufacturer's protocol.
# 1. Cell and tissue lysates were heat treated at 80° C. for 15 min and then centrifuged at 4° C., 15 000×g for 20 min.
# 2. The supernatants were transferred to new tubes and used as unknown samples for measurement method (point 5).
# 3. The 2DG6P standards were prepared by serial dilution of 1 mM 2DG6P in 1× Sample Diluent Buffer in the following ranges: 0; 0.3125; 0.625; 1.25; 2.5 and 5 μM.
# 4. 60 μL of Reagent Mix A (including NAD and low glucose-6-phosphate dehydrogenase (G6PDH)) were added to each well of 96-ell plate.
# 5. Then 2DG6P standard and unknown samples (20 μL) were added to each well and incubated for over 19 hours at room temperature.
# 6. […]
# 12. The optical density (OD) was read at 420 nm in every 2.5 min over a period of 30 min using a microplate reader preheated to 30° C.
# [12] = test system: Human Bronchial Epithelial Cells (HBEpiC); assay: Cell viability (CellTiter 96 AQueous), long exposure; format: cell-based; conditions: 48 h exposure (FIG. 5)
# Procedure: as §1, with “passage 6,” for “passage 2,”, “at 9.0” for “at 10.0”, “for 48” for “for 15 min, 30 min, 1 h, 2 h and 6”
# Cells were exposed to compounds at the following concentrations of 2-deoxy-D-glucose in medium as a solvent: 100 mM; 50 mM; 25 mM; 12.5 mM; 6.25 mM; 3.13 mM.
# In order to asses cell viability, CellTiter 96® AQueous Solution Assay (Promega) was used in accordance with the manufacturer's instructions, 20 μl of reagent was added per 100 μl of cell culture medium and cells were incubated at 5% CO2, 16% O2, 37° C. Absorbance was measured at 490 nm. The results obtained 4 hours after addition of the CellTiter reagent were analyzed in GraphPadPrism 5.01. Data normalization and a nonlinear regression model were applied in order to determine the IC50.
structure (smiles),measurement,setting,value
"O=CC[C@@H](O)[C@H](O)[C@H](O)CO [Example 2-DG, 2-deoxy-D-glucose]",SARS-CoV-2 replication,[1],inhibition
same,cytotoxic effects on epithelial cells,[2],lack of cytotoxic effects
same,production of infectious SARS-CoV-2 particles (TCID50),"[3]; MOI 0.001, 0.39 to 50 mM, 24 h",strong decrease
same,effect on qPCR experiments (gene E copy numbers) compared with TCID50,[3]; RT-qPCR,less pronounced
same,production of infectious SARS-CoV-2 particles (TCID50),"[4]; Vero E6, 2-DG added 8 hours after infection",strong decrease
same,TCID50/ml,"[4]; Post-treatment (8 h.p.i), 2-DG 0.19 mM",1.47E+07 TCID50/ml
same,TCID50/ml,"[4]; Post-treatment (8 h.p.i), 2-DG 0.56 mM",3.16E+07 TCID50/ml
same,TCID50/ml,"[4]; Post-treatment (8 h.p.i), 2-DG 1.67 mM",3.16E+06 TCID50/ml
same,TCID50/ml,"[4]; Post-treatment (8 h.p.i), 2-DG 5 mM",3.16E+05 TCID50/ml
same,TCID50/ml,"[4]; Post-treatment (8 h.p.i), 2-DG 15 mM",3.16E+04 TCID50/ml
same,TCID50/ml,"[4]; Post-treatment (8 h.p.i), 2-DG 45 mM",1.47E+01 TCID50/ml
same,TCID50/ml,"[4]; Treatment (0 h.p.i), 2-DG 0.19 mM",6.81E+06 TCID50/ml
same,TCID50/ml,"[4]; Treatment (0 h.p.i), 2-DG 0.56 mM",3.16E+07 TCID50/ml
same,TCID50/ml,"[4]; Treatment (0 h.p.i), 2-DG 1.67 mM",1.47E+07 TCID50/ml
same,TCID50/ml,"[4]; Treatment (0 h.p.i), 2-DG 5 mM",1.47E+05 TCID50/ml
same,TCID50/ml,"[4]; Treatment (0 h.p.i), 2-DG 15 mM",3.16E+02 TCID50/ml
same,TCID50/ml,"[4]; Treatment (0 h.p.i), 2-DG 45 mM",3.16E+00 TCID50/ml
same,infection and inflammation in a mouse model,[5],inhibited infection and inflammation
same,concentration from which production of infectious SARS-CoV-2 particles decreases,"[6]; PBEC, 2 h pretreatment, MOI 0.1, 48 h, TCID50",≥ 0.78 mM
same,concentration above which effect is equivalent to the positive control remdesivir,"[6]; PBEC, remdesivir 6 μM",above 0.78 mM
same,concentration from which production of infectious SARS-CoV-2 particles massively decreases,"[6]; PBEC, treatment only conditions, MOI 0.1, 48 h, TCID50",≥ 0.78 mM
same,SARS-CoV-2 virus production,"[6]; primary human bronchial epithelial cells, 0.39 to 50 mM",dose dependent decrease
same,tolerated dose in clinical trials,[7],up to 63 mg per kg body weight and day
same,rhinovirus replication in vitro,[8],decreasing rhinovirus replication
same,inhibition of spike glycosylation at 15 mM,"[9]; 15 mM, FIG. 2",total inhibition
same,glycosylation of spike protein from SARS-CoV-2 virus,"[9]; 25 mM or 15 mM 2-DG for 24 h, Western blot (FIG. 2)",inhibits glycosylation
same,toxicity,[10],No toxicity
same,course of 2-DG accumulation over treatment time,[11]; inhalation 24 h,plateau effect
same,2-DG accumulation in the lungs,"[11]; inhalation of 30 mM 2-DG thrice a day for 24 h, OD 420 nm (FIG. 10)",accumulated in the lungs
same,IC50 (cell viability),[12],very high
"CCC(CC)COC(=O)[C@H](C)N[P@](=O)(OC[C@H]1O[C@@](C#N)(c2ccc3c(N)ncnn23)[C@H](O)[C@@H]1O)Oc1ccccc1 [RMD, remdesivir]",TCID50/ml,"[4]; Post-treatment (8 h.p.i), RMD 6 μM",6.81E+03 TCID50/ml
same,TCID50/ml,"[4]; Treatment (0 h.p.i), RMD 6 μM",6.81E+00 TCID50/ml
